# Measured values published in PubChem BioAssay (NCI).
#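 Compound exposure: 48 hours, 5 concentrations, 96-well plates. TGI: total growth inhibition.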
# Tests used:
# Assay in all cases: NCI tumour cell line growth inhibition, 48 h
# [1] = system: 786-0 renal
# [2] = system: M14 melanoma
# [3] = system: CAKI-1 renal
# [4] = system: TK-10 renal
# [5] = system: HOP-62 NSCLC
# [6] = system: MDA-MB-231 breast
# [7] = system: U251 CNS
# [8] = system: OVCAR-4 ovarian
# [9] = system: T-47D breast
# [10] = system: SK-MEL-2 melanoma
# [11] = system: UACC-257 melanoma
# [12] = system: NCI/ADR-RES ovarian
# [13] = system: UACC-62 melanoma
# [14] = system: A549 NSCLC
# [15] = system: OVCAR-3 ovarian
# [16] = system: CCRF-CEM leukemia
# [17] = system: DU-145 prostate
# [18] = system: NCI-H460 lung
# [19] = system: K-562 leukemia
# [20] = system: NCI-H226 lung
# [21] = system: HOP-92 NSCLC
# [22] = system: SW-620 colon
# [23] = system: MALME-3M melanoma
# [24] = system: HL-60(TB) leukemia
# [25] = system: NCI-H23 lung
# [26] = system: OVCAR-5 ovarian
# [27] = system: SK-OV-3 ovarian
# [28] = system: PC-3 prostate
# [29] = system: LOX IMVI melanoma
# [30] = system: SF-539 CNS
# [31] = system: KM12 colon
# [32] = system: SF-295 CNS
# [33] = system: MCF7 breast
# [34] = system: SK-MEL-28 melanoma
# [35] = system: MDA-MB-435
# [36] = system: NCI-H522 lung
# [37] = system: HCT-116 colon
# [38] = system: SN12C renal
# [39] = system: IGROV1 ovarian
# [40] = system: SF-268 CNS
# [41] = system: MOLT-4 leukemia
# [42] = system: EKVX NSCLC
# [43] = system: MDA-N
# [44] = system: HCC-2998 colon
# [45] = system: HCT-15 colon
# [46] = system: SK-MEL-5 melanoma
# [47] = system: A498 renal
# [48] = system: HT29 colon
# [49] = system: ACHN renal
# [50] = system: BT-549 breast
# [51] = system: SNB-75 CNS
# [52] = system: COLO 205 colon
# [53] = system: UO-31 renal
# [54] = system: SNB-19 CNS
# [55] = system: OVCAR-8 ovarian
# [56] = system: HS 578T breast
# [57] = system: RPMI-8226 leukemia
# [58] = system: SR leukemia
smiles,measurement,setting,value
Cc1cnc(-n2c(C)nc3cc(Cl)ccc3c2=O)s1,TGI,[1],> 100 µM
same,TGI,[2],> 100 µM
same,TGI,[3],> 100 µM
same,TGI,[4],> 100 µM
same,TGI,[5],> 100 µM
same,TGI,[6],> 100 µM
same,TGI,[7],> 100 µM
same,TGI,[8],> 100 µM
same,TGI,[9],68.9 µM
same,TGI,[10],> 100 µM
same,TGI,[11],99.6 µM
same,TGI,[12],94.5 µM
same,TGI,[13],68.1 µM
same,TGI,[14],> 100 µM
same,TGI,[15],> 100 µM
same,TGI,[16],> 100 µM
same,TGI,[17],66.4 µM
same,TGI,[18],> 100 µM
same,TGI,[19],> 100 µM
same,TGI,[20],93.8 µM
same,TGI,[21],> 100 µM
same,TGI,[22],> 100 µM
same,TGI,[23],> 100 µM
same,TGI,[24],> 100 µM
same,TGI,[25],97.7 µM
same,TGI,[26],> 100 µM
same,TGI,[27],> 100 µM
same,TGI,[28],> 100 µM
same,TGI,[29],> 100 µM
same,TGI,[30],55.3 µM
same,TGI,[31],> 100 µM
same,TGI,[32],> 100 µM
same,TGI,[33],56.5 µM
same,TGI,[34],> 100 µM
same,TGI,[35],> 100 µM
same,TGI,[36],92.1 µM
same,TGI,[37],65.6 µM
same,TGI,[38],> 100 µM
same,TGI,[39],> 100 µM
same,TGI,[40],> 100 µM
same,TGI,[41],> 100 µM
same,TGI,[42],35.8 µM
same,TGI,[43],56.8 µM
same,TGI,[44],96.1 µM
same,TGI,[45],> 100 µM
same,TGI,[46],34 µM
same,TGI,[47],61.7 µM
same,TGI,[48],> 100 µM
same,TGI,[49],90.9 µM
same,TGI,[50],> 100 µM
same,TGI,[51],70.4 µM
same,TGI,[52],40.2 µM
same,TGI,[53],4.13 µM
same,TGI,[54],> 100 µM
same,TGI,[55],> 100 µM
same,TGI,[56],> 100 µM
c1ccc2c(c1)SC1=C(SC(=C3SC4=C(S3)Sc3ccccc3S4)S1)S2,TGI,[1],> 100 µM
same,TGI,[2],> 100 µM
same,TGI,[3],> 100 µM
same,TGI,[4],> 100 µM
same,TGI,[5],> 100 µM
same,TGI,[6],> 100 µM
same,TGI,[7],> 100 µM
same,TGI,[8],> 100 µM
same,TGI,[9],> 100 µM
same,TGI,[10],> 100 µM
same,TGI,[11],> 100 µM
same,TGI,[12],> 100 µM
same,TGI,[13],> 100 µM
same,TGI,[14],> 100 µM
same,TGI,[15],> 100 µM
same,TGI,[16],> 100 µM
same,TGI,[17],> 100 µM
same,TGI,[18],> 100 µM
same,TGI,[20],> 100 µM
same,TGI,[21],> 100 µM
same,TGI,[22],> 100 µM
same,TGI,[23],> 100 µM
same,TGI,[24],> 100 µM
same,TGI,[25],> 100 µM
same,TGI,[26],> 100 µM
same,TGI,[28],> 100 µM
same,TGI,[29],> 100 µM
same,TGI,[30],> 100 µM
same,TGI,[31],> 100 µM
same,TGI,[32],> 100 µM
same,TGI,[33],> 100 µM
same,TGI,[34],> 100 µM
same,TGI,[35],> 100 µM
same,TGI,[36],> 100 µM
same,TGI,[37],> 100 µM
same,TGI,[38],> 100 µM
same,TGI,[39],> 100 µM
same,TGI,[40],> 100 µM
same,TGI,[41],> 100 µM
same,TGI,[42],> 100 µM
same,TGI,[57],> 100 µM
same,TGI,[43],> 100 µM
same,TGI,[44],> 100 µM
same,TGI,[45],> 100 µM
same,TGI,[46],> 100 µM
same,TGI,[48],> 100 µM
same,TGI,[49],> 100 µM
same,TGI,[50],> 100 µM
same,TGI,[51],> 100 µM
same,TGI,[52],> 100 µM
same,TGI,[53],> 100 µM
same,TGI,[54],> 100 µM
same,TGI,[55],> 100 µM
same,TGI,[56],> 100 µM
COc1cc(OC)c2c(c1-c1ccc(C)cc1)CC(C)N(Cc1ccccc1)[C@H]2C (stereo partly specified),TGI,[1],> 100 µM
same,TGI,[2],> 100 µM
same,TGI,[3],> 100 µM
same,TGI,[4],> 100 µM
same,TGI,[5],> 100 µM
same,TGI,[6],> 100 µM
same,TGI,[9],> 100 µM
same,TGI,[11],68.5 µM
same,TGI,[13],> 100 µM
same,TGI,[14],> 100 µM
same,TGI,[16],> 100 µM
same,TGI,[17],> 100 µM
same,TGI,[18],> 100 µM
same,TGI,[19],> 100 µM
same,TGI,[20],> 100 µM
same,TGI,[22],> 100 µM
same,TGI,[23],53.2 µM
same,TGI,[24],43.4 µM
same,TGI,[25],> 100 µM
same,TGI,[27],> 100 µM
same,TGI,[28],> 100 µM
same,TGI,[29],> 100 µM
same,TGI,[30],> 100 µM
same,TGI,[31],> 100 µM
same,TGI,[32],> 100 µM
same,TGI,[33],> 100 µM
same,TGI,[34],> 100 µM
same,TGI,[35],> 100 µM
same,TGI,[36],72.8 µM
same,TGI,[37],> 100 µM
same,TGI,[38],> 100 µM
same,TGI,[39],> 100 µM
same,TGI,[40],> 100 µM
same,TGI,[41],> 100 µM
same,TGI,[42],> 100 µM
same,TGI,[57],52.3 µM
same,TGI,[43],> 100 µM
same,TGI,[44],> 100 µM
same,TGI,[45],> 100 µM
same,TGI,[46],51.5 µM
same,TGI,[47],> 100 µM
same,TGI,[48],69.7 µM
same,TGI,[49],> 100 µM
same,TGI,[58],> 100 µM
same,TGI,[50],> 100 µM
same,TGI,[51],> 100 µM
same,TGI,[52],> 100 µM
same,TGI,[53],> 100 µM
same,TGI,[54],> 100 µM
same,TGI,[55],> 100 µM
same,TGI,[56],67.3 µM
